For 33 compounds, IC50 results are on record in patent US12459921B2, “Isoindoline compound, preparation method, pharmaceutical composition and use thereof” (SHANGHAI INSTITUTE OF MATERIA MEDICA, CHINESE ACADEMY OF …, priority 2018, dated 2025).

The test system of the experiment is MM.1S cells. Put plainly: Inhibitory effect on the proliferation of MM.1S, MTS cell viability test. The experiment is classed as cell-based. To be noted: Homo sapiens, MM1.S, 168 h, multiple myeloma MM.1S cells, 7 days incubation, read-out: Tumor cell inhibitory activity. The method, boiled down: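 MM.1S cells (20,000/well, RPMI 1640 with 10% FBS) exposed to 5-fold compound dilutions at 0.2% DMSO for 7 days at 37° C, 5% CO2. MTS added for 3-4 h; OD490-OD690 gave inhibition versus DMSO, IC50 fitted, mean of three experiments.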
(In general: Tetrazolium dyes change colour on reduction, which living cells bring about.)
Consider `CC(=O)N[C@@H](CCCc1cccc2c1CN(C1CCC(=O)NC1=O)C2=O)C(=O)NCc1ccc(Oc2ccccc2)cc1` (stereo partly drawn) [Example 192, (2S)-2-acetylamino-5-(2-(2,6-dioxopiperidine-3-)-1-oxoisoindoline-4-)-N-(4-phenoxybenzyl)pentanamide], for which the IC50 fell in the range of 100 to 1000 nM. As to `Cc1ccc(NC(=O)[C@H](CCCc2cccc3c2CN(C2CCC(=O)NC2=O)C3=O)NC(=O)CCCCCO)cc1Cl` (stereo partly drawn) [Example 193, N-((2S)-1-(3-chloro-4-methylaniline)-5-(2-(2,6-dioxopiperidine-3-)-1-oxoisoindoline-4-)-1-oxopentyl-2-)-6-hydroxyhexanamide], the IC50 was less than 100 nM. As to `CC(=O)N[C@@H](CCCc1cccc2c1CN(C1CCC(=O)NC1=O)C2=O)C(=O)Nc1ccccc1-c1ccccn1` (stereo partly drawn) [Example 194, (2S)-2-acetylamino-5-(2-(2,6-dioxopiperidine-3-)-1-oxoisoindoline-4-)-N-(2-(pyridine-2-)phenyl)pentanamide], the IC50 was 100 to 1000 nM. Take `CC(=O)N[C@@H](CCCc1cccc2c1CN(C1CCC(=O)NC1=O)C2=O)C(=O)Nc1ccccc1-c1cccnc1` (stereo partly drawn) [Example 196, (2S)-2-acetylamino-5-(2-(2,6-dioxopiperidine-3-)-1-oxoisoindoline-4-)-N-(2-(pyridine-3-)phenyl)pentanamide]: the IC50 lay in the range of 1000 to 20000 nM.

With `CC(=O)N[C@@H](CCCc1cccc2c1CN(C1CCC(=O)NC1=O)C2=O)c1nc2cccc(Br)c2[nH]1` (stereo partly drawn) [Example 197, N-((1S)-1-(7-bromo-1H-benzo[d]imidazole-2-)-4-(2-(2,6-dioxopiperidine-3-)-1-oxoisoindoline-4-)butyl)acetamide], the IC50 fell in the range of 100 to 1000 nM. In the case of `CC(=O)N[C@@H](CCCc1cccc2c1CN(C1CCC(=O)NC1=O)C2=O)C(=O)NC12CC3CC(CC(C3)C1)C2` (stereo partly drawn) [Example 198, (2S)-2-acetylamino-N-((3R,5R,7R)-adamantane-1-)-5-(2-(2,6-dioxopiperidine-3-)-1-oxoisoindoline-4-)pentanamide], the IC50 is less than 100 nM. `N[C@@H](CCCc1cccc2c1CN(C1CCC(=O)NC1=O)C2=O)c1nc2ccccc2[nH]1` (stereo partly drawn) [Example 199, 3-(4-((S)-4-amino-4-(1H-benzo(d)imidazole-2-)butyl)-1-oxoisoindoline-2-)piperidine-2,6-dione]: the IC50 is more than 20000 nM. On to `CC(=O)N[C@@H](CCCc1cccc2c1CN(C1CCC(=O)NC1=O)C2=O)C(=O)NC1C2CC3CC(C2)CC1C3` (stereo partly drawn) [Example 200, (2S)-2-acetylamino-N-((1S,3S,5S,7 S)-adamantane-2-)-5-(2-(2,6-dioxopiperidine-3-)-1-oxoisoindoline-4-)pentanamide], for which the IC50 lay within 100 to 1000 nM. For `N[C@@H](CCCc1cccc2c1CN(C1CCC(=O)NC1=O)C2=O)c1nc2ccncc2[nH]1` (stereo partly drawn) [Example 201, 3-(4-((S)-4-amino-4-(3H-imidazole[4,5-c]pyridine-2-)butyl)-1-oxoindoline-2-)piperidine-2,6-dione], the IC50 is more than 20000 nM. In the case of `CC(=O)N[C@@H](CCCc1cccc2c1CN(C1CCC(=O)NC1=O)C2=O)C(=O)Nc1ccc(C)c(Cl)c1` (stereo partly drawn) [Example 202, (2S)-2-acetylamino-N-(3-chloro-4-methylphenyl)-5-(2-(2,6-dioxopiperidine-3-)-1-oxoisoindoline-4-)pentanamide], the IC50 is less than 100 nM. The same measure for `CC(=O)N[C@@H](CCCc1cccc2c1CN(C1CCC(=O)NC1=O)C2=O)c1nc2ccccc2[nH]1` (stereo partly drawn) [Example 203, N-((1S)-1-(1H-benzo[d]imidazole-2-)-4-(2-(2,6-dioxopiperidine-3-)-1-oxoisoindoline-4-)butyl)amide]: 100 to 1000 nM. As to `CC(=O)N[C@@H](CCCc1cccc2c1CN(C1CCC(=O)NC1=O)C2=O)C(=O)N(C)Cc1ccccc1` (stereo partly drawn) [Example 204, (2S)-2-acetylamino-N-benzyl-5-(2-(2,6-oxopiperidine-3-)-1-oxoisoindoline-4-)-N-methylpentanamide], the IC50 was 1000 to 20000 nM. For `CC(=O)N[C@@H](CCCc1cccc2c1CN(C1CCC(=O)NC1=O)C2=O)c1nc2ccncc2[nH]1` (stereo partly drawn) [Example 205, N-((1S)-4-(2-(2,6-dioxopiperidine-3-)-1-oxoisoindoline-4-)-1-(3H-imidazole[4,5-c]pyridine-2-)butyl)acetamide], the IC50 was more than 20000 nM. For the compound `CCC(=O)N[C@@H](CCCc1cccc2c1CN(C1CCC(=O)NC1=O)C2=O)C(=O)NCc1ccccc1` (stereo partly drawn) [Example 206, (2S)—N-benzyl-5-(2-(2,6-dioxopiperidine-3-)-1-oxoisoindoline-4-)-2-propionamidopentaneamide], the IC50 is less than 100 nM.

Regarding `CC(=O)N[C@@H](CCCc1cccc2c1CN(C1CCC(=O)NC1=O)C2=O)C(=O)N1CCC2(CC1)OCc1ccccc12` (stereo partly drawn) [Example 207, N-((2S)-5-(2-(2,6-dioxopiperidine-3-)-1-oxoisoindoline-4-)-1-oxo-1-(3H-spiro[isobenzofuran-1,4′-piperidine]-1′-)pentyl-2-)acetamide], the IC50 lay in the range of 100 to 1000 nM. The same measure for `[2H]c1c([2H])c([2H])c(N2CCN(CCCCc3cccc4c3CN(C3CCC(=O)NC3=O)C4=O)CC2)c([2H])c1[2H]` (stereo not drawn) [Example 208, 3-(1-oxo-4-(4-(4-(phenyl-d5)piperazine-1-)butyl)isoindoline-2-)piperidine-2,6-dione]: 100 to 1000 nM; for `[2H]c1c([2H])c([2H])c(N2CCN(CCCCCCc3cccc4c3CN(C3CCC(=O)NC3=O)C4=O)CC2)c([2H])c1[2H]` (stereo not drawn) [Example 209, 3-(1-oxo-4-(6-(4-(phenyl-d5)piperazine-1-)hexyl)isoindoline-2-)piperidine-2,6-dione]: less than 100 nM. The same measure for `[2H]c1c([2H])c([2H])c(N2CCN(CCCCCc3cccc4c3CN(C3CCC(=O)NC3=O)C4=O)CC2)c([2H])c1[2H]` (stereo not drawn) [Example 210]: 100 to 1000 nM; for `O=C1CCC(N2Cc3c(OCCCCOc4ccnc5ccccc45)cc(F)cc3C2=O)C(=O)N1` (stereo not drawn) [Example 211, 3-(6-fluoro-1-oxy-4-(4-(quinoline-4-oxy)butoxy)-1-oxoisoindoline-2-)piperidine-2,6-dione]: less than 100 nM. As to `Cc1cc(OCCCCOc2cc(F)cc3c2CN(C2CCC(=O)NC2=O)C3=O)c2ccccc2n1` (stereo not drawn) [Example 212, 3-(6-fluoro-4-(4-((2-methylquinoline-4-)oxy)butoxy)-1-oxoisoindoline-2-)piperidine-2,6-dione], the IC50 is less than 100 nM.

For `Cc1cc(COCCCCOc2cccc3c2CN(C2CCC(=O)NC2=O)C3=O)c2ccccc2n1` (stereo not drawn) [Example 213, 3-(4-(4-((2-methylquinoline-4-)methoxy)butoxy)-1-oxoisoindoline-2-)piperidine-2,6-dione], the IC50 was 100 to 1000 nM.

Turning to `CCc1cc(COCCCCOc2cccc3c2CN(C2CCC(=O)NC2=O)C3=O)c2ccccc2n1` (stereo not drawn) [Example 214, 3-(4-(4-((2-ethylquinoline-4-)methoxy)butoxy)-1-oxoisoindoline-2-)piperidine-2,6-dione], the IC50 lay in the range of 100 to 1000 nM. As for `O=C1CCC(N2Cc3c(CCCCN4CCN(c5ccccc5Cl)CC4)cccc3C2=O)C(=O)N1` (stereo not drawn) [Example 215, 3-(4-(4-(4-(2-chlorophenyl)piperazine-1-yl)butyl)-1-oxoisoindoline-2-yl) piperidine-2,6-dione], the IC50 was less than 100 nM. Consider `O=C1CCC(N2Cc3c(CCCCN4CCN(c5ccccc5[N+](=O)[O-])CC4)cccc3C2=O)C(=O)N1` (stereo not drawn) [Example 216, 3-(4-(4-(4-(2-nitrophenyl)piperazine-1-yl)butyl)-1-oxoisoindoline-2-yl) piperidine-2,6-dione], for which the IC50 is less than 100 nM.

Consider `Cc1ccccc1N1CCN(CCCCc2cccc3c2CN(C2CCC(=O)NC2=O)C3=O)CC1` (stereo not drawn) [Example 217, 3-(1-oxo-4-(4-(4-(o-tolyl)piperazine-1-yl)butyl)isoindoline-2-yl)piperidine-2,6-dione], for which the IC50 is less than 100 nM. For `O=C1CCC(N2Cc3c(CCCCN4CCN(c5ccccc5F)CC4)cccc3C2=O)C(=O)N1` (stereo not drawn) [Example 218, 3-(4-(4-(4-(2-fluorophenyl)piperazine-1-yl)butyl)-1-oxoisoindoline-2-yl)piperidine-2,6-dione], the IC50 was less than 100 nM. In the case of `O=C1CCC(N2Cc3c(CCCCN4CCN(c5ccccc5C(F)(F)F)CC4)cccc3C2=O)C(=O)N1` (stereo not drawn) [Example 219, 3-(1-oxo-4-(4-(4-(2-(trifluoromethyl)phenyl)piperazine-1-yl)butyl)isoindoline-2-yl)piperidine-2,6-dione], the IC50 is less than 100 nM. For `O=C1CCC(N2Cc3c(CCCCN4CCN(c5cccc(C(F)(F)F)c5)CC4)cccc3C2=O)C(=O)N1` (stereo not drawn) [Example 220, 3-(1-oxo-4-(4-(4-(3-(trifluoromethyl)phenyl)piperazine-1-yl)butyl)isoindoline-2-yl)piperidine-2,6-dione], the IC50 is less than 100 nM. Regarding `O=C1CCC(N2Cc3c(CCCCN4CCN(c5ccc(Cl)cc5Cl)CC4)cccc3C2=O)C(=O)N1` (stereo not drawn) [Example 222, 3-(4-(4-(4-(2,4-dichlorophenyl)piperazine-1-yl)butyl)-1-oxoisoindoline-2-yl)piperidine-2,6-dione], the IC50 is less than 100 nM. As for `O=C1CCC(N2Cc3c(CCCCN4CCN(c5cc(Cl)cc(Cl)c5)CC4)cccc3C2=O)C(=O)N1` (stereo not drawn) [Example 223, 3-(4-(4-(4-(3,5-dichlorophenyl)piperazine-1-yl)butyl)-1-oxoisoindoline-2-yl) piperidine-2,6-dione], the IC50 is less than 100 nM.

`COc1ccccc1N1CCN(CCCCc2cccc3c2CN(C2CCC(=O)NC2=O)C3=O)CC1` (stereo not drawn) [Example 224, 3-(4-(4-(4-(2-methoxyphenyl)piperazine-1-yl)butyl)-1-isoindoline-2-yl)piperidine-2,6-dione]: the IC50 was less than 100 nM. Consider `O=C1CCC(N2Cc3c(CCCCCN4CCN(c5cccc6ccsc56)CC4)cccc3C2=O)C(=O)N1` (stereo not drawn) [Example 225, 3-(4-(5-(4-(benzothiophene-7-yl)piperazin-1-yl)pentyl)-1-oxoisoindoline-2-yl)piperidine-2,6-dione], for which the IC50 lay in the range of 1000 to 20000 nM.

For `O=C1CCC(N2Cc3c(CCCCN4CCC(c5noc6cc(F)ccc56)CC4)cccc3C2=O)C(=O)N1` (stereo not drawn) [Example 227, 3-(4-(4-(4-(6-fluorobenzisoxazole-3-yl)piperidin-1-yl)butyl)-1-oxoisoindoline-2-yl)piperidine-2,6-dione], the IC50 lay within 1000 to 20000 nM.
